Data set [1] concerns the target T1, tyrosine specific protein kinase in the epidermal growth factor receptor (Homo sapiens, UniProt P00533).
T1 construct: membrane fraction of human epithelial carcinoma cells A-431; endogenous in cells; host or cells: A-431 human epithelial carcinoma cells, membrane fraction
The data set can be described thus: Inhibitory activity against tyrosine specific protein kinase (epidermal growth factor receptor kinase), A-431 membrane fraction. The format is biochemical. Particulars: EGF, 0° C., 30 min, read-out: 50% inhibitory concentration (tyrosine specific protein kinase) (converted). The protocol:
In the above processes of incubation and purification, MH435 was traced by detecting the inhibition activity thereof by measuring the tyrosine specific protein kinase in test samples in accordance with the following method.
[Measurement of tyrosine specific protein kinase activity]
The measurement of tyrosin specific protein kinase activity was carried out by modifying the method of measuring enzyme activity described by G. Carpenter et al. in The Journal of Biological Chemistry, 254, 4874-4891 (1979) using the membrane fraction of human epithelial carcinoma cells A-431 with respect to the tyrosine specific protein kinase in the epidermal growth factor receptor. […] Then, ^32 P adsorbed on the filter paper was measured by counting the radioactivity (a). At the same time, count (b) was measured for the reaction product which was obtained by the same reaction and treated in the same manner as above except that the test sample was excluded, while counts (a') and (b') were measured for the reaction products in which the membrane fractions were further excluded, respectively. The inhibitory ratio with respect to the epidermal growth factor receptor kinase was then calculated from the equation

Data set [2] has as its system S. aureus MS8710. Briefly: Antimicrobial activity, agar dilution method. The class given is cell-based. Particulars: Staphylococcus aureus, Muller-Hinton agar dilution. From the text: (§1) Minimum inhibitory concentrations (MIC) of the substance against various bacteria determined by the agar dilution method using Muller-Hinton culture medium are shown in the following Table 4.

Data set [3] relates to S. aureus 209 P. Briefly: Antimicrobial activity, agar dilution method. The class given is cell-based. The note with it: Staphylococcus aureus, Muller-Hinton agar dilution.
Text: as §1
In general terms: Agar dilution tests growth on a series of plates holding different concentrations.

In data set [4] the test system is B. cereus ATCC 10702. The data set can be described thus: Antimicrobial activity, agar dilution method. The class given is cell-based. Particulars: Bacillus cereus, ATCC10702, Muller-Hinton agar dilution.
Text: as §1

The test system of data set [5] is K. pneumoniae PCI 602. Briefly: Antimicrobial activity, agar dilution method. The class given is cell-based. Particulars: Klebsiella pneumoniae, PCI602, Muller-Hinton agar dilution.
Text: as §1

Data set [6] relates to Sal. typhi T-63. Briefly: Antimicrobial activity, agar dilution method. The format is cell-based. Particulars: Salmonella enterica.
Text: as §1

Data set [7] relates to S. aureus MS9610. The data set can be described thus: Antimicrobial activity, agar dilution method. The class given is cell-based. Particulars: Staphylococcus aureus, Muller-Hinton agar dilution.
Text: as §1

Data set [8] relates to Pseu. aeruginosa A3. Briefly: Antimicrobial activity, agar dilution method. The format is cell-based. The note with it: Pseudomonas aeruginosa, Muller-Hinton agar dilution.
Text: as §1

The test system of data set [9] is Serr. marcessens. Briefly: Antimicrobial activity, agar dilution method. The format is cell-based. The note with it: Muller-Hinton agar dilution.
Text: as §1

In data set [10] the test system is Prot. vulgaris OX19. The data set can be described thus: Antimicrobial activity, agar dilution method. The class given is cell-based. The note with it: Proteus vulgaris, Muller-Hinton agar dilution.
Text: as §1

Data set [11] has as its system S. aureus Smith. Briefly: Antimicrobial activity, agar dilution method. The class given is cell-based. The note with it: Staphylococcus aureus, Muller-Hinton agar dilution.
Text: as §1

In data set [12] the test system is B. Subtilis PCI 219. Briefly: Antimicrobial activity, agar dilution method. The format is cell-based. Particulars: Bacillus subtilis, Muller-Hinton agar dilution.
Text: as §1

Data set [13] concerns M. lysodelkticus IFO 333. Briefly: Antimicrobial activity, agar dilution method. The format is cell-based. Particulars: Muller-Hinton agar dilution.
Text: as §1

Data set [14] has as its system Coryn. bovis 1810. Briefly: Antimicrobial activity, agar dilution method. The class given is cell-based. The note with it: Corynebacterium bovis, Muller-Hinton agar dilution.
Text: as §1

Data set [15] has as its system E. coli NIHJ. The data set can be described thus: Antimicrobial activity, agar dilution method. The format is cell-based. Particulars: Escherichia coli, Muller-Hinton agar dilution.
Text: as §1

The test system of data set [16] is IMC carcinoma cells. The data set can be described thus: Effects on cultured carcinoma cells: IMC carcinoma. The format is cell-based. Particulars: 72 h, 3 days, 37° C., cell count. The protocol: (§2) IC50 was measured by inoculating the respective cells in dished (3-5×10^4 cells/dish), incubating the cells for 1 day (at 37° C.; CO2 concentration, 5%), then adding the substance MH435-A, further incubating the resultant mixture for 3 days under the same conditions and finally counting the number of the cells.

The subject of data set [17] is Ki-NRK cells. Briefly: Effects on cultured carcinoma cells: Ki-NRK. The format is cell-based. Particulars: 72 h, 3 days, 37° C., cell count. The protocol:
as §2

Data set [18] deals with ts Src-NRK (at 33° C.) carcinoma form. Briefly: Effects on cultured carcinoma cells: ts Src-NRK (at 33° C.) carcinoma form. The class given is cell-based. Particulars: 72 h, 3 days, cell count.
Data set [19] has as its system L1210 leukemia cells. Briefly: Effects on cultured carcinoma cells: L1210. The class given is cell-based. The note with it: Mus musculus, 72 h, 3 days, 37° C., cell count. The protocol: as §2
The nature of data set [20]: Acute toxicity (LD50). The note with it: mouse, in vivo, ip.
Data set [21] has as its system ts Src-NRK (at 39° C.) normal form. Briefly: Effects on cultured carcinoma cells: ts Src-NRK (at 39° C.) normal form. The format is cell-based. Particulars: 72 h, 3 days, cell count.
Data set [22] has as its system A-431 cells. Briefly: Effects on cultured carcinoma cells: A-431. The format is cell-based. The note with it: Homo sapiens, 72 h, 3 days, 37° C., cell count. The protocol: as §2

Values after ≈ are worked out from the molar mass of the structure shown. Bounds are passed on as bounds.

T1 sequence (P00533 25-1210): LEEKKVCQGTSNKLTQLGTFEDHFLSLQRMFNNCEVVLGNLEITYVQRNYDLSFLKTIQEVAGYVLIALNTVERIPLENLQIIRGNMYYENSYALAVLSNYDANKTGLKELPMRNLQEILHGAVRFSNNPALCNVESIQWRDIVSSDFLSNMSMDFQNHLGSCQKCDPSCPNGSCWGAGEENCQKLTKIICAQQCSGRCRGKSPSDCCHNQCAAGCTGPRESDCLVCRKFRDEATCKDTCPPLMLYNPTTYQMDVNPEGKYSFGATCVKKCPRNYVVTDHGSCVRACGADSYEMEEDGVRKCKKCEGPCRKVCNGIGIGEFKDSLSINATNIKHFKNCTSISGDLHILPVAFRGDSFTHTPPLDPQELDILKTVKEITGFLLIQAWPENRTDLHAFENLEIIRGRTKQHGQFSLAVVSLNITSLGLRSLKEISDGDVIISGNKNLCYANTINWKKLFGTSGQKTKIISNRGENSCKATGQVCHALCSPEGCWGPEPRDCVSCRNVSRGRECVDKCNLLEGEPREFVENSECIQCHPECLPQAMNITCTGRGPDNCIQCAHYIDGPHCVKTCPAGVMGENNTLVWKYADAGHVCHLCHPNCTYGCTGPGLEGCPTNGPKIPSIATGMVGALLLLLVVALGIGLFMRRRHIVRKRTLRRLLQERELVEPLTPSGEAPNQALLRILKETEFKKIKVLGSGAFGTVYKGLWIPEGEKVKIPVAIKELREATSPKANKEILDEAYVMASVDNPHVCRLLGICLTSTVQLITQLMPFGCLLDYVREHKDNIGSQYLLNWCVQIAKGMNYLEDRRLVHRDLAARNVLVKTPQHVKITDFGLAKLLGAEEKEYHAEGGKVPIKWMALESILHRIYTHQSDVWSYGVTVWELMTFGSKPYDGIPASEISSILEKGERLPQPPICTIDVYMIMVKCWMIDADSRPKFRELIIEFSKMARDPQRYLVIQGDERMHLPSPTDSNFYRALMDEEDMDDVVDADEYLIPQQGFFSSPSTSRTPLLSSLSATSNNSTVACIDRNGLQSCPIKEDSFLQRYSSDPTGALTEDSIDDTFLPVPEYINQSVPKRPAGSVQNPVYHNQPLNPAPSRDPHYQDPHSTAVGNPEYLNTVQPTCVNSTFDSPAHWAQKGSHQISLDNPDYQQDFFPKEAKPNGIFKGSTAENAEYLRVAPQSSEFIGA

The MIC is the lowest concentration found to suppress growth. Low readings indicate a more susceptible organism, high ones a less susceptible organism. `O=CNCCc1cc(O)ccc1O` [MH435-B]: the IC50 in data set [1] was 33.1 µM. The minimum inhibitory concentration (MIC) is 50 µg/mL (≈ 276 µM) in [2]; 50 µg/mL (≈ 276 µM) in data set [3]; 100 µg/mL (≈ 552 µM) in [4]; 100 µg/mL (≈ 552 µM) in [5]; 100 µg/mL (≈ 552 µM) in data set [6]; 50 µg/mL (≈ 276 µM) in data set [7]. Also, the minimum inhibitory concentration (MIC) in [8] was 50 µg/mL (≈ 276 µM); in data set [9], 100 µg/mL (≈ 552 µM); in data set [10], 50 µg/mL (≈ 276 µM); in [11], 50 µg/mL (≈ 276 µM); in data set [12] it was 100 µg/mL (≈ 552 µM); in data set [13], 50 µg/mL (≈ 276 µM). For the same molecule, the minimum inhibitory concentration (MIC) in [14] and in data set [15] was 100 µg/mL (≈ 552 µM) in each case.

By LD50 is commonly meant the dose expected to kill half of the subjects tested. Take `O=CNC=Cc1cc(O)ccc1O` [MH435-A]: the IC50 was 3.01 µg/mL (≈ 16.8 µM) in [16]; 1.7 µg/mL (≈ 9.49 µM) in [17]; 2 µg/mL (≈ 11.2 µM) in data set [18]; 2.41 µg/mL (≈ 13.5 µM) in data set [19]; 3.6 µg/mL (≈ 20.1 µM) in [21]; 3.6 µg/mL (≈ 20.1 µM) in [22]. For the same molecule, the IC50 in [1] is 3.07 µM. Besides, the LD50 in data set [20] is ≥ 200 mg/kg. Moreover, the MIC is 50 µg/mL (≈ 279 µM) in [2]; 50 µg/mL (≈ 279 µM) in data set [3]; 100 µg/mL (≈ 558 µM) in data set [4]; 100 µg/mL (≈ 558 µM) in data set [5]; 100 µg/mL (≈ 558 µM) in data set [6]; 50 µg/mL (≈ 279 µM) in data set [7]. Also, the MIC stood at 25 µg/mL (≈ 140 µM) in [8]; 100 µg/mL (≈ 558 µM) in data set [9]; 100 µg/mL (≈ 558 µM) in data set [10]; 25 µg/mL (≈ 140 µM) in data set [11]; 100 µg/mL (≈ 558 µM) in [12]; 50 µg/mL (≈ 279 µM) in data set [13]. The MIC in data set [14] and in [15] was 100 µg/mL (≈ 558 µM) each time.

(Values after US4686308A, “Novel physiologically active substance MH435” (Microbial Chemistry Research Foundation, priority 1985, dated 1987).)
